Test results taken from ChEMBL document CHEMBL1649182, “Binding of faropenem and other beta-lactam agents to penicillin-binding proteins of pneumococci with various beta-lactam susceptibilities” (Antimicrob Agents Chemother, 2009).
Values after ≈ are worked out from the molar mass of the structure shown.

Columns and labels:
[1] = target: T1, Penicillin-binding protein 2B (Streptococcus pneumoniae serotype 4 (strain ATCC BAA-334 / TIGR4), UniProt P0A3M5); test: Displacement of Biocillin FL from Streptococcus pneumoniae 3413 PBP2B
T1 sequence (P0A3M5 whole entry): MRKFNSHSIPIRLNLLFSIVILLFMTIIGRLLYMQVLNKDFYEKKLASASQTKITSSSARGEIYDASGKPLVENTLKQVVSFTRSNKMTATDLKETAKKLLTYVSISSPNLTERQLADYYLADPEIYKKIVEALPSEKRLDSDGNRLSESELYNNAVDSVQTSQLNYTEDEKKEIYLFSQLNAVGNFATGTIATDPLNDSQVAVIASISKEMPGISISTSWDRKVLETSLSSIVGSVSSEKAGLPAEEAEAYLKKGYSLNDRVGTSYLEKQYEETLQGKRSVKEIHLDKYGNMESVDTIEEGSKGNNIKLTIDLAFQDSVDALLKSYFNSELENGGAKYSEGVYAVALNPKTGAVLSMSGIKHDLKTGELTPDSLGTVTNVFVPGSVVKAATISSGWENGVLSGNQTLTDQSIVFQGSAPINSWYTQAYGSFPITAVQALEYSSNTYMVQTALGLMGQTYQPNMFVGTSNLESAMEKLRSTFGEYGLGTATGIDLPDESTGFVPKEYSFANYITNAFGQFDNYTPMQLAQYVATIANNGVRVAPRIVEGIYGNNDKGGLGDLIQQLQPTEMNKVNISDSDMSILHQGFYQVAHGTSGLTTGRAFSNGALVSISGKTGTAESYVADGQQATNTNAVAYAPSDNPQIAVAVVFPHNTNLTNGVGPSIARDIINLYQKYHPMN

[2] = Displacement of Biocillin FL from Streptococcus pneumoniae 3413 PBP1B
[3] = Displacement of Biocillin FL from Streptococcus pneumoniae 3009 PBP3
[4] = Displacement of Biocillin FL from Streptococcus pneumoniae 3665 PBP1B
[5] = Displacement of Biocillin FL from Streptococcus pneumoniae 3665 PBP2A
[6] = target: T2, Penicillin-binding protein 2x (Streptococcus pneumoniae serotype 4 (strain ATCC BAA-334 / TIGR4), UniProt P14677); test: Displacement of Biocillin FL from Streptococcus pneumoniae 3676 PBP2X
T2 sequence (P14677 whole entry): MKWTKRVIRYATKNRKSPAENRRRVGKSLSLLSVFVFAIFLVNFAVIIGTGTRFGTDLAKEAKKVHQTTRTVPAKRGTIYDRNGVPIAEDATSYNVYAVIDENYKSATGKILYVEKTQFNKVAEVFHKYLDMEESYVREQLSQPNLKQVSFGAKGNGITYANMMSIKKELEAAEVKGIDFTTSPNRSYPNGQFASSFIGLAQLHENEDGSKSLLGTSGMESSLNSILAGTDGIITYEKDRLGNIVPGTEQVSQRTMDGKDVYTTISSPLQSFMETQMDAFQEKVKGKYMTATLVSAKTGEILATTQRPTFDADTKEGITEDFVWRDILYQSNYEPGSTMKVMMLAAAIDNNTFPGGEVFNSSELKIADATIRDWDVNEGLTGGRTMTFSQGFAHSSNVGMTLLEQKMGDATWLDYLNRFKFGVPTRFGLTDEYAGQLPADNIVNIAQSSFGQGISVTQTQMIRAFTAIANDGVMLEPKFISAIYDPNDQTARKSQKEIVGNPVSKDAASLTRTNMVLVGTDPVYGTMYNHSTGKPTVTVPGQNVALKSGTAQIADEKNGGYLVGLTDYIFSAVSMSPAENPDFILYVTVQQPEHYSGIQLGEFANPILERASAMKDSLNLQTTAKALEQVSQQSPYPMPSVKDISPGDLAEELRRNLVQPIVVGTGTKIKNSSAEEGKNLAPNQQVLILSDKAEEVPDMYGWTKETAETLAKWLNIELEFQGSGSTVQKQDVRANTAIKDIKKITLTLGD

Streptococcus pneumoniae [7] = test: Antimicrobial activity against penicillin-resistant Streptococcus pneumoniae 24 by CLSI method; type: functional
[8] = Displacement of Biocillin FL from Streptococcus pneumoniae 1076 PBP1B
[9] = Displacement of Biocillin FL from Streptococcus pneumoniae 3009 PBP1B
[10] = Displacement of Biocillin FL from Streptococcus pneumoniae 24 PBP2A
[11] = Displacement of Biocillin FL from Streptococcus pneumoniae 24 PBP2X
Streptococcus pneumoniae [12] = test: Antimicrobial activity against penicillin-sensitive Streptococcus pneumoniae 3009 by CLSI method; type: functional
[13] = Displacement of Biocillin FL from Streptococcus pneumoniae 2527 PBP1B
[14] = target: T2, Penicillin-binding protein 2x; test: Displacement of Biocillin FL from Streptococcus pneumoniae 3665 PBP2X
[15] = target: T3, Penicillin-binding protein 1A (Streptococcus pneumoniae serotype 4 (strain ATCC BAA-334 / TIGR4), UniProt Q04707); test: Displacement of Biocillin FL from Streptococcus pneumoniae 3009 PBP1A
T3 sequence (Q04707 whole entry): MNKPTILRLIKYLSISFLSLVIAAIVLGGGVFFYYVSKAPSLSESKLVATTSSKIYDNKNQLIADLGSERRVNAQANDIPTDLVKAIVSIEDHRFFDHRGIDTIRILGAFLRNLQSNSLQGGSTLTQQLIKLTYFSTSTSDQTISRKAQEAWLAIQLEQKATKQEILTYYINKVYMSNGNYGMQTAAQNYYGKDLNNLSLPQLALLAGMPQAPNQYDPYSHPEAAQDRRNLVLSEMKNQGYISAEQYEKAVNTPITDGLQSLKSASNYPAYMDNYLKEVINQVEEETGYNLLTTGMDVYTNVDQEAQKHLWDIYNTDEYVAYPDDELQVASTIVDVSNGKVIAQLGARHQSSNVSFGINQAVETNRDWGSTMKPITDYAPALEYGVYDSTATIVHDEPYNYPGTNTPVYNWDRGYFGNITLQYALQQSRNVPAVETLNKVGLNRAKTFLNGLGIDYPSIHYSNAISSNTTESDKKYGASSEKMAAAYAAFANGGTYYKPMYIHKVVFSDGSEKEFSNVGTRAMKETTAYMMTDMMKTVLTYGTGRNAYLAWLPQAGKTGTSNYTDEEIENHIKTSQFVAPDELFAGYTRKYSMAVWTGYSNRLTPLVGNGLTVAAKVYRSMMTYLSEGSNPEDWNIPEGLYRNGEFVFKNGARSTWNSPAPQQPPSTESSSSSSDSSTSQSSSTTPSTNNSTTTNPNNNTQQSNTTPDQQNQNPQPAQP

[16] = target: T3, Penicillin-binding protein 1A; test: Displacement of Biocillin FL from Streptococcus pneumoniae 3665 PBP1A
Streptococcus pneumoniae [17] = test: Antimicrobial activity against penicillin-intermediate Streptococcus pneumoniae 3243 by CLSI method; type: functional
Streptococcus pneumoniae [18] = test: Antimicrobial activity against penicillin-intermediate Streptococcus pneumoniae 3665 by CLSI method; type: functional
[19] = target: T1, Penicillin-binding protein 2B; test: Displacement of Biocillin FL from Streptococcus pneumoniae 3009 PBP2B
[20] = target: T3, Penicillin-binding protein 1A; test: Displacement of Biocillin FL from Streptococcus pneumoniae 1076 PBP1A
[21] = Displacement of Biocillin FL from Streptococcus pneumoniae 1077 PBP1B

CC1(C)S[C@@H]2[C@H](NC(=O)[C@H](N)c3ccc(O)cc3)C(=O)N2[C@H]1C(=O)O [AMOXICILLIN]
IC50 [1]: 452 nM | IC50 [2]: 0.035 µg/mL (≈ 0.0958 µM) | IC50 [3]: 0.047 µg/mL (≈ 0.129 µM) | IC50 [4]: 0.079 µg/mL (≈ 0.216 µM) | IC50 [5]: 0.05 µg/mL (≈ 0.137 µM) | IC50 [6]: 118 nM | MIC (Streptococcus pneumoniae [7]): 2 µg/mL (≈ 5.47 µM) | IC50 [8]: 0.068 µg/mL (≈ 0.186 µM) | IC50 [9]: 0.059 µg/mL (≈ 0.161 µM) | IC50 [10]: 0.077 µg/mL (≈ 0.211 µM) | IC50 [11]: 0.117 µg/mL (≈ 0.32 µM) | MIC (Streptococcus pneumoniae [12]): 0.016 µg/mL (≈ 0.0438 µM) | IC50 [13]: 0.029 µg/mL (≈ 0.0794 µM) | IC50 [14]: 257 nM | IC50 [15]: 246 nM | IC50 [16]: 183 nM | MIC (Streptococcus pneumoniae [17]): 0.06 µg/mL (≈ 0.164 µM) | MIC (Streptococcus pneumoniae [18]): 0.125 µg/mL (≈ 0.342 µM) | IC50 [19]: 137 nM | IC50 [20]: 120 nM | IC50 [21]: 0.006 µg/mL (≈ 0.0164 µM)

CO/N=C(\C(=O)N[C@@H]1C(=O)N2C(C(=O)O)=C(COC(N)=O)CS[C@H]12)c1ccco1 [CEFUROXIME]
IC50 [1]: 1.18 nM | IC50 [2]: 0.032 µg/mL (≈ 0.0754 µM) | IC50 [3]: 0.024 µg/mL (≈ 0.0566 µM) | IC50 [4]: 0.016 µg/mL (≈ 0.0377 µM) | IC50 [5]: 0.009 µg/mL (≈ 0.0212 µM) | IC50 [6]: 47.1 nM | MIC (Streptococcus pneumoniae [7]): 2 µg/mL (≈ 4.71 µM) | IC50 [8]: 0.008 µg/mL (≈ 0.0189 µM) | IC50 [9]: 0.024 µg/mL (≈ 0.0566 µM) | IC50 [10]: 0.016 µg/mL (≈ 0.0377 µM) | IC50 [11]: 0.198 µg/mL (≈ 0.467 µM) | MIC (Streptococcus pneumoniae [12]): 0.03 µg/mL (≈ 0.0707 µM) | IC50 [13]: 0.028 µg/mL (≈ 0.066 µM) | IC50 [14]: 33 nM | IC50 [15]: 23.6 nM | IC50 [16]: 4.71 nM | MIC (Streptococcus pneumoniae [17]): 0.25 µg/mL (≈ 0.589 µM) | MIC (Streptococcus pneumoniae [18]): 0.125 µg/mL (≈ 0.295 µM) | IC50 [19]: 3900 nM | IC50 [20]: 9.43 nM | IC50 [21]: 0.008 µg/mL (≈ 0.0189 µM)

C[C@@H](O)[C@H]1C(=O)N2C(C(=O)O)=C([C@H]3CCCO3)S[C@H]12 [FAROPENEM]
IC50 [1]: 498 nM | IC50 [2]: 0.019 µg/mL (≈ 0.0666 µM) | IC50 [3]: 0.006 µg/mL (≈ 0.021 µM) | IC50 [4]: 0.012 µg/mL (≈ 0.0421 µM) | IC50 [5]: 0.015 µg/mL (≈ 0.0526 µM) | IC50 [6]: 59.6 nM | MIC (Streptococcus pneumoniae [7]): 1 µg/mL (≈ 3.5 µM) | IC50 [8]: 0.002 µg/mL (≈ 0.00701 µM) | IC50 [9]: 0.002 µg/mL (≈ 0.00701 µM) | IC50 [10]: 0.023 µg/mL (≈ 0.0806 µM) | IC50 [11]: 0.758 µg/mL (≈ 2.66 µM) | MIC (Streptococcus pneumoniae [12]): 0.03 µg/mL (≈ 0.105 µM) | IC50 [13]: 0.002 µg/mL (≈ 0.00701 µM) | IC50 [14]: 606 nM | IC50 [15]: 35 nM | IC50 [16]: 105 nM | MIC (Streptococcus pneumoniae [17]): 0.125 µg/mL (≈ 0.438 µM) | MIC (Streptococcus pneumoniae [18]): 0.125 µg/mL (≈ 0.438 µM) | IC50 [19]: 24.5 nM | IC50 [20]: 52.6 nM | IC50 [21]: 0.005 µg/mL (≈ 0.0175 µM)

C[C@@H](O)[C@H]1C(=O)N2C(C(=O)O)=C(SCCNC=N)C[C@H]12 [IMIPENEM ANHYDROUS]
IC50 [1]: 2890 nM | IC50 [2]: 0.316 µg/mL (≈ 1.06 µM) | IC50 [3]: 0.039 µg/mL (≈ 0.13 µM) | IC50 [4]: 0.077 µg/mL (≈ 0.257 µM) | IC50 [5]: 0.233 µg/mL (≈ 0.778 µM) | IC50 [6]: 130 nM | MIC (Streptococcus pneumoniae [7]): 0.25 µg/mL (≈ 0.835 µM) | IC50 [8]: 0.031 µg/mL (≈ 0.104 µM) | IC50 [9]: 0.009 µg/mL (≈ 0.0301 µM) | IC50 [10]: 0.352 µg/mL (≈ 1.18 µM) | IC50 [11]: 2.048 µg/mL (≈ 6.84 µM) | MIC (Streptococcus pneumoniae [12]): 0.008 µg/mL (≈ 0.0267 µM) | IC50 [13]: 0.023 µg/mL (≈ 0.0768 µM) | IC50 [14]: 1980 nM | IC50 [15]: 86.9 nM | IC50 [16]: 965 nM | MIC (Streptococcus pneumoniae [17]): 0.016 µg/mL (≈ 0.0534 µM) | MIC (Streptococcus pneumoniae [18]): 0.03 µg/mL (≈ 0.1 µM) | IC50 [19]: 154 nM | IC50 [20]: 301 nM | IC50 [21]: 0.106 µg/mL (≈ 0.354 µM)

CC1(C)S[C@@H]2[C@H](NC(=O)Cc3ccccc3)C(=O)N2[C@H]1C(=O)O [PENICILLIN G]
IC50 [1]: 532 nM | IC50 [2]: 0.205 µg/mL (≈ 0.613 µM) | IC50 [3]: 0.001 µg/mL (≈ 0.00299 µM) | IC50 [4]: 0.029 µg/mL (≈ 0.0867 µM) | IC50 [5]: 0.016 µg/mL (≈ 0.0478 µM) | IC50 [6]: 83.7 nM | MIC (Streptococcus pneumoniae [7]): 4 µg/mL (≈ 12 µM) | IC50 [8]: 0.007 µg/mL (≈ 0.0209 µM) | IC50 [9]: 0.001 µg/mL (≈ 0.00299 µM) | IC50 [10]: 0.133 µg/mL (≈ 0.398 µM) | IC50 [11]: 0.323 µg/mL (≈ 0.966 µM) | MIC (Streptococcus pneumoniae [12]): 0.03 µg/mL (≈ 0.0897 µM) | IC50 [13]: 0.009 µg/mL (≈ 0.0269 µM) | IC50 [14]: 123 nM | IC50 [15]: 26.9 nM | IC50 [16]: 92.7 nM | MIC (Streptococcus pneumoniae [17]): 0.25 µg/mL (≈ 0.748 µM) | MIC (Streptococcus pneumoniae [18]): 0.125 µg/mL (≈ 0.374 µM) | IC50 [19]: 20.9 nM | IC50 [20]: 47.8 nM | IC50 [21]: 0.005 µg/mL (≈ 0.015 µM)
